Legend:
[1] = test system: 8G9 ascites (HI activity for Ck/HKYU22/02 virus); assay type: biochemical
[2] = test system: 8G9/HRP (binding to virus strain Ck/HK/Yu22/02)

Substance: H T P C D T R D C V L R [G2]
- HI blocking effect [1]: could clearly block
- Competition with avian influenza virus for 8G9/HRP [2]: had competition activity

Source: patent publication US8603467B2 (priority 2007, dated 2013)
